Read-outs that look alike come from different tables or passages of the source.
Assays:
[1] = Absorption by oral administration in monkey (plasma concentration, thin layer cup bio-assay); type: in vivo; settings: 10 mg/kg;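 further: plasma concentration in γ/ml (µg/mL) rather than the printed ng/mL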
Method: The test compounds were dissolved in 0.1N hydrochloric acid or suspended in 0.5% sodium carboxymethyl cellulose solution. The solution or suspension was administered into stomach of monkey (two monkeys) with cathetel. After the administration of test compounds, the blood was collected from the lower limbs vein at a fixed interval with a syringe treated with heparin. The collected blood was centrifuged at 3,000 r.p.m. for 10 minutes to separate the plasma. The concentration of the test compound was measured by a thin layer cup method (a bio-assay), wherein Bacillus subtilis ATCC 6633 was used as a bacteria for determination. Based on a standard curve, the concentration of test compound in plasma was calculated.

[2] = test system: Streptococcus faecalis IFO 12580; assay: MIC by serial dilution method on agar plate; type: cell-based
From the text: (§1) Chemotherapy, 22, 1126-1128 (1974)]. The microorganisms were used in a concentration of 1×10^8 cells/ml (O.D. 660 mμ, 0.07-0.16) and 1×10^6 cells/ml (100 folds dilution).

[3] = test system: Serratia marcescens IFO 12648; assay: MIC by serial dilution method on agar plate; type: cell-based
From the text: as §1

[4] = test system: Acinetobacter calcoaceticus AC-54; assay: MIC by serial dilution method on agar plate; type: cell-based
From the text: as §1

[5] = test system: Pseudomonas aeruginosa ATCC 10145; assay: MIC by serial dilution method on agar plate; type: cell-based
From the text: as §1

[6] = test system: Bacillus subtilis ATCC 6633; assay: MIC by serial dilution method on agar plate; type: cell-based
From the text: as §1

Escherichia coli No. 29 = assay: MIC by serial dilution method on agar plate; type: cell-based
From the text: as §1

[7] = test system: Escherichia coli NIHJ JC-2; assay: MIC by serial dilution method on agar plate; type: cell-based
From the text: as §1

[8] = test system: Pseudomonas aeruginosa E-2; assay: MIC by serial dilution method on agar plate; type: cell-based
From the text: as §1

[9] = test system: Proteus inconstans IFO 12930; assay: MIC by serial dilution method on agar plate; type: cell-based
From the text: as §1

[10] = test system: Proteus morganii IID Kono; assay: MIC by serial dilution method on agar plate; type: cell-based
From the text: as §1

[11] = test system: Klebsiella pneumoniae NCTC 9632; assay: MIC by serial dilution method on agar plate; type: cell-based
From the text: as §1

[12] = test system: Staphylococcus pyrogens IID S-23; assay: MIC by serial dilution method on agar plate; type: cell-based
From the text: (§2) The microorganisms were used in a concentration of 1×10^8 cells/ml (O.D. 660 mμ, 0.07-0.16) and 1×10^6 cells/ml (100 folds dilution).

[13] = test system: Staphylococcus aureus FDA 209P; assay: MIC by serial dilution method on agar plate; type: cell-based
From the text: as §2

SMILES: CN1CCN(c2c(F)cc3c(=O)c(C(=O)O)cn(-c4ccc(O)cc4)c3c2F)CC1 [Test Compd. No. 1, 6,8-Difluoro-1-(4-hydroxyphenyl)-7-(4-methyl-1-piperazinyl)-1,4-dihydro-4-oxoquinoline-3-carboxylic acid]
- concentration at 0.5 h ([1]; Run 1, 0.5 hour, read-out: Amount of test compd. in plasma): 2350 ng/mL
- concentration at 1 h ([1]; Run 1, 1 hour, read-out: Amount of test compd. in plasma): 4260 ng/mL
- concentration at 2 h ([1]; Run 1, 2 hour, read-out: Amount of test compd. in plasma): 1940 ng/mL
- concentration at 4 h ([1]; Run 1, 4 hour, read-out: Amount of test compd. in plasma): 720 ng/mL
- concentration at 7 h ([1]; Run 1, 7 hour, read-out: Amount of test compd. in plasma): < 200 ng/mL
- concentration at 24 h ([1]; Run 1, 24 hour, read-out: Amount of test compd. in plasma): < 200 ng/mL
- concentration at 0.5 h ([1]; Run 2, 0.5 hour, read-out: Amount of test compd. in plasma): < 200 ng/mL
- concentration at 1 h ([1]; Run 2, 1 hour, read-out: Amount of test compd. in plasma): 2180 ng/mL
- concentration at 2 h ([1]; Run 2, 2 hour, read-out: Amount of test compd. in plasma): 1120 ng/mL
- concentration at 4 h ([1]; Run 2, 4 hour, read-out: Amount of test compd. in plasma): 1120 ng/mL
- concentration at 7 h ([1]; Run 2, 7 hour, read-out: Amount of test compd. in plasma): < 200 ng/mL
- concentration at 24 h ([1]; Run 2, 24 hour, read-out: Amount of test compd. in plasma): < 200 ng/mL
- concentration at 0.5 h ([1]; average of two runs, 0.5 hour, read-out: Amount of test compd. in plasma, Average): < 1370 ng/mL
- concentration at 1 h ([1]; average of two runs, 1 hour, read-out: Amount of test compd. in plasma, Average): 3220 ng/mL
- concentration at 2 h ([1]; average of two runs, 2 hour, read-out: Amount of test compd. in plasma, Average): 1530 ng/mL
- concentration at 4 h ([1]; average of two runs, 4 hour, read-out: Amount of test compd. in plasma, Average): 920 ng/mL
- concentration at 7 h ([1]; average of two runs, 7 hour, read-out: Amount of test compd. in plasma, Average): < 390 ng/mL
- concentration at 24 h ([1]; average of two runs, 24 hour, read-out: Amount of test compd. in plasma, Average): < 390 ng/mL
- minimum inhibitory concentration (MIC) ([2]; 1 × 10^6 cells/ml): 0.097
- minimum inhibitory concentration (MIC) ([2]; 1 × 10^8 cells/ml): 0.195
- minimum inhibitory concentration (MIC) ([3]; 1 × 10^6 cells/ml): < 0.048
- minimum inhibitory concentration (MIC) ([3]; 1 × 10^8 cells/ml): < 0.048
- minimum inhibitory concentration (MIC) ([4]; 1 × 10^6 cells/ml): < 0.048
- minimum inhibitory concentration (MIC) ([4]; 1 × 10^8 cells/ml): 0.097
- minimum inhibitory concentration (MIC) ([5]; 1 × 10^6 cells/ml): 0.195
- minimum inhibitory concentration (MIC) ([5]; 1 × 10^8 cells/ml): 0.39
- minimum inhibitory concentration (MIC) ([6]; 1 × 10^6 cells/ml): < 0.048
- minimum inhibitory concentration (MIC) ([6]; 1 × 10^8 cells/ml): < 0.048
- minimum inhibitory concentration (MIC) (Escherichia coli No. 29; 1 × 10^6 cells/ml): < 0.048
- minimum inhibitory concentration (MIC) (Escherichia coli No. 29; 1 × 10^8 cells/ml): < 0.048
- minimum inhibitory concentration (MIC) ([7]; 1 × 10^6 cells/ml): < 0.048
- minimum inhibitory concentration (MIC) ([7]; 1 × 10^8 cells/ml): < 0.048
- minimum inhibitory concentration (MIC) ([8]; 1 × 10^6 cells/ml): 0.097
- minimum inhibitory concentration (MIC) ([8]; 1 × 10^8 cells/ml): 0.195
- minimum inhibitory concentration (MIC) ([9]; 1 × 10^6 cells/ml): 0.097
- minimum inhibitory concentration (MIC) ([9]; 1 × 10^8 cells/ml): 0.195
- minimum inhibitory concentration (MIC) ([10]; 1 × 10^6 cells/ml): < 0.048
- minimum inhibitory concentration (MIC) ([10]; 1 × 10^8 cells/ml): 0.097
- minimum inhibitory concentration (MIC) ([11]; 1 × 10^6 cells/ml): < 0.048
- minimum inhibitory concentration (MIC) ([11]; 1 × 10^8 cells/ml): < 0.048
- minimum inhibitory concentration (MIC) ([12]; 1 × 10^6 cells/ml): 0.39
- minimum inhibitory concentration (MIC) ([12]; 1 × 10^8 cells/ml): 0.781
- minimum inhibitory concentration (MIC) ([13]; 1 × 10^6 cells/ml): < 0.048
- minimum inhibitory concentration (MIC) ([13]; 1 × 10^8 cells/ml): < 0.048

From patent US4755513A, “Antimicrobial 1-substituted phenyl-4-oxoquinoline-3-carboxylic acid compounds” (Otsuka Pharmaceutical Company, Limited, priority 1985, dated 1988)
